Test results: ChEMBL document CHEMBL3763148, “Synthesis, structure elucidation, DNA-PK and PI3K and anti-cancer activity of 8- and 6-aryl-substituted-1-3-benzoxazines” (Eur J Med Chem, 2016)

Legend:
Type in all cases: functional
[1] = Cytotoxicity against human OVCAR3 cells assessed as cell growth inhibition at 10 uM after 48 hrs by SRB assay relative to control; settings: OVCAR-3, 48 h, read-out: GI
A549 = assay: Cytotoxicity against human A549 cells assessed as cell growth inhibition at 10 uM after 48 hrs by SRB assay relative to control; settings: A549, 48 h, read-out: GI
[2] = Cytotoxicity against human SF268 cells assessed as cell growth inhibition at 10 uM after 48 hrs by SRB assay relative to control; settings: SF-268, 48 h, read-out: GI
NCI-H322M = assay: Cytotoxicity against human NCI-H322M cells assessed as cell growth inhibition at 10 uM after 48 hrs by SRB assay relative to control; settings: read-out: GI
SK-MEL-2 = assay: Cytotoxicity against human SK-MEL-2 cells assessed as cell growth inhibition at 10 uM after 48 hrs by SRB assay relative to control; settings: SK-MEL-2, 48 h, read-out: GI
[3] = Cytotoxicity against human UACC257 cells assessed as cell growth inhibition at 10 uM after 48 hrs by SRB assay relative to control; settings: UACC-257, 48 h, read-out: GI
EKVX = assay: Cytotoxicity against human EKVX cells assessed as cell growth inhibition at 10 uM after 48 hrs by SRB assay relative to control; settings: read-out: GI
[4] = Cytotoxicity against human HL-60(TB) cells assessed as cell growth inhibition at 10 uM after 48 hrs by SRB assay relative to control; settings: HL-60, 48 h, read-out: GI
A498 = assay: Cytotoxicity against human A498 cells assessed as cell growth inhibition at 10 uM after 48 hrs by SRB assay relative to control; settings: A498, 48 h, read-out: GI
[5] = Cytotoxicity against human SKOV3 cells assessed as cell growth inhibition at 10 uM after 48 hrs by SRB assay relative to control; settings: SK-OV-3, 48 h, read-out: GI
MCF7 = assay: Cytotoxicity against human MCF7 cells assessed as cell growth inhibition at 10 uM after 48 hrs by SRB assay relative to control; settings: MCF7, 48 h, read-out: GI
CCRF-CEM = assay: Cytotoxicity against human CCRF-CEM cells assessed as cell growth inhibition at 10 uM after 48 hrs by SRB assay relative to control; settings: read-out: GI
Malme-3M = assay: Cytotoxicity against human MALME-3M cells assessed as cell growth inhibition at 10 uM after 48 hrs by SRB assay relative to control; settings: read-out: GI
NCI-H226 = assay: Cytotoxicity against human NCI-H226 cells assessed as cell growth inhibition at 10 uM after 48 hrs by SRB assay relative to control; settings: NCI-H226, 48 h, read-out: GI
[6] = Cytotoxicity against human HOP62 cells assessed as cell growth inhibition at 10 uM after 48 hrs by SRB assay relative to control; settings: HOP-62, 48 h, read-out: GI
[7] = Cytotoxicity against human HOP92 cells assessed as cell growth inhibition at 10 uM after 48 hrs by SRB assay relative to control; settings: HOP-92, 48 h, read-out: GI
[8] = Cytotoxicity against human RXF393 cells assessed as cell growth inhibition at 10 uM after 48 hrs by SRB assay relative to control; settings: RXF 393, 48 h, read-out: GI
[9] = Cytotoxicity against human Hs 578T cells assessed as cell growth inhibition at 10 uM after 48 hrs by SRB assay relative to control; settings: read-out: GI
NCI-H23 = assay: Cytotoxicity against human NCI-H23 cells assessed as cell growth inhibition at 10 uM after 48 hrs by SRB assay relative to control; settings: NCI-H23, 48 h, read-out: GI
[10] = Cytotoxicity against human PC3 cells assessed as cell growth inhibition at 10 uM after 48 hrs by SRB assay relative to control; settings: PC-3, 48 h, read-out: GI
[11] = Cytotoxicity against human RPMI8226 cells assessed as cell growth inhibition at 10 uM after 48 hrs by SRB assay relative to control; settings: RPMI-8226, 48 h, read-out: GI
[12] = Cytotoxicity against human HCC2998 cells assessed as cell growth inhibition at 10 uM after 48 hrs by SRB assay relative to control; settings: HCC 2998, 48 h, read-out: GI
NCI-H522 = assay: Cytotoxicity against human NCI-H522 cells assessed as cell growth inhibition at 10 uM after 48 hrs by SRB assay relative to control; settings: NCI-H522, 48 h, read-out: GI
[13] = Cytotoxicity against human OVCAR8 cells assessed as cell growth inhibition at 10 uM after 48 hrs by SRB assay relative to control; settings: OVCAR-8, 48 h, read-out: GI
[14] = Cytotoxicity against human COLO205 cells assessed as cell growth inhibition at 10 uM after 48 hrs by SRB assay relative to control; settings: COLO 205, 48 h, read-out: GI
[15] = Cytotoxicity against human HCT15 cells assessed as cell growth inhibition at 10 uM after 48 hrs by SRB assay relative to control; settings: HCT-15, 48 h, read-out: GI
[16] = Cytotoxicity against human IGROV1 cells assessed as cell growth inhibition at 10 uM after 48 hrs by SRB assay relative to control; settings: IGROV-1, 48 h, read-out: GI
[17] = Cytotoxicity against human MOLT4 cells assessed as cell growth inhibition at 10 uM after 48 hrs by SRB assay relative to control; settings: MOLT-4, 48 h, read-out: GI
SK-MEL-28 = assay: Cytotoxicity against human SK-MEL-28 cells assessed as cell growth inhibition at 10 uM after 48 hrs by SRB assay relative to control; settings: SK-MEL-28, 48 h, read-out: GI
KM12 = assay: Cytotoxicity against human KM12 cells assessed as cell growth inhibition at 10 uM after 48 hrs by SRB assay relative to control; settings: KM12, 48 h, read-out: GI
SK-MEL-5 = assay: Cytotoxicity against human SK-MEL-5 cells assessed as cell growth inhibition at 10 uM after 48 hrs by SRB assay relative to control; settings: SK-MEL-5, 48 h, read-out: GI
786-0 = assay: Cytotoxicity against human 786-0 cells assessed as cell growth inhibition at 10 uM after 48 hrs by SRB assay relative to control; settings: 786-0, 48 h, read-out: GI
NCI-H460 = assay: Cytotoxicity against human NCI-H460 cells assessed as cell growth inhibition at 10 uM after 48 hrs by SRB assay relative to control; settings: NCI-H460, 48 h, read-out: GI
[18] = Cytotoxicity against human OVCAR5 cells assessed as cell growth inhibition at 10 uM after 48 hrs by SRB assay relative to control; settings: OVCAR-5, 48 h, read-out: GI
HT-29 = assay: Cytotoxicity against human HT-29 cells assessed as cell growth inhibition at 10 uM after 48 hrs by SRB assay relative to control; settings: HT-29, 48 h, read-out: GI

Row | Compound | inhibition of growth at 10 µM [1] | inhibition of growth at 10 µM (A549) | inhibition of growth at 10 µM [2] | inhibition of growth at 10 µM (NCI-H322M) | inhibition of growth at 10 µM (SK-MEL-2) | inhibition of growth at 10 µM [3] | inhibition of growth at 10 µM (EKVX) | inhibition of growth at 10 µM [4] | inhibition of growth at 10 µM (A498) | inhibition of growth at 10 µM [5] | inhibition of growth at 10 µM (MCF7) | inhibition of growth at 10 µM (CCRF-CEM) | inhibition of growth at 10 µM (Malme-3M) | inhibition of growth at 10 µM (NCI-H226) | inhibition of growth at 10 µM [6] | inhibition of growth at 10 µM [7] | inhibition of growth at 10 µM [8] | inhibition of growth at 10 µM [9] | inhibition of growth at 10 µM (NCI-H23) | inhibition of growth at 10 µM [10] | further results
1 | COc1ccc(-c2cccc3c(=O)nc(N4CCOCC4)oc23)cc1 | 5.94% | 5.88% | 6.91% | 3.11% | -9.8% | 4.28% | 11.1% | 7.35% | 27.1% | -6.51% | 17.4% | 2.57% | -4.08% | 15.1% | 5.81% | 34.8% | 7.94% | 11.1% | 14.3% | 14.9% | inhibition of growth at 10 µM [11]: -0.31%; inhibition of growth at 10 µM [12]: -5.73%; inhibition of growth at 10 µM (NCI-H522): 12.8%; inhibition of growth at 10 µM [13]: 4.78%; inhibition of growth at 10 µM [14]: -2.6%; inhibition of growth at 10 µM [15]: 3.13%; inhibition of growth at 10 µM [16]: 0.87%; inhibition of growth at 10 µM [17]: 1.48%; inhibition of growth at 10 µM (SK-MEL-28): 2.38%; inhibition of growth at 10 µM (KM12): 2.91%; inhibition of growth at 10 µM (SK-MEL-5): 9.19%; inhibition of growth at 10 µM (786-0): 9.72%; inhibition of growth at 10 µM (NCI-H460): -5.69%; inhibition of growth at 10 µM [18]: 4.76%; inhibition of growth at 10 µM (HT-29): 10.8%
2 | O=c1nc(N2CCOCC2)oc2c(-c3cccc4ccccc34)cccc12 | 14.2% | 14.4% | 19.4% | 9.24% | -0.37% | 3.51% | 18.9% | 6.4% | 92% | 10% | 10.2% | 8.52% | 24.8% | 33.4% | 19.2% | 39.9% | 38.9% | 16.2% | 10.7% | 40.3% | inhibition of growth at 10 µM [11]: 3.86%; inhibition of growth at 10 µM [12]: -9.26%; inhibition of growth at 10 µM (NCI-H522): 18%; inhibition of growth at 10 µM [13]: 14.8%; inhibition of growth at 10 µM [14]: -3.19%; inhibition of growth at 10 µM [15]: 6.69%; inhibition of growth at 10 µM [16]: 24.6%; inhibition of growth at 10 µM [17]: 6.92%; inhibition of growth at 10 µM (SK-MEL-28): 5.64%; inhibition of growth at 10 µM (KM12): 12.7%; inhibition of growth at 10 µM (SK-MEL-5): 20.8%; inhibition of growth at 10 µM (786-0): 25.6%; inhibition of growth at 10 µM (NCI-H460): -10%; inhibition of growth at 10 µM [18]: 10.8%; inhibition of growth at 10 µM (HT-29): 10.4%
